Assay results as given in patent US20180244629A1, “Compounds And Compositions For The Treatment Of Cancer” (The Broad Institute, Inc., priority 2013, published 2018).
Like-named read-outs stand apart in the source and are kept apart here.

Experiments:
Format in all cases: cell-based
A549 cells = assay: A549 Cytotoxicity Assay (Cell Titer Glo viability); conditions: Homo sapiens, A549
Protocol: (§1) A549 Cytotoxicity Assay Protocol. Day 0: A549 cells (ATCC, A549 CCL-185) are grown to 95% confluence in RPMI, 10% FBS/Pen/Strep/L-Glutamine. Day 1: Plate cells (1000 per well) in 40 μl culturing media using Corning 384-well plates (3570), incubate in standard TC conditions (5% CO2, 95% humidity, 37° C.) for 24 h. Day 2: Dilute each concentration of a half-log serial dilution of compound (1 mM-100 nM) 1:200 in culturing media and add […] (50 μl total volume) of that dilution to designated wells (8 replicates per concentration). The final dilution will be 1000×([…]). Day 4: Remove plate from incubator to cool for 20 minutes to room temperature. Add 40 μl of a 25% Promega Cell Titer Glo solution (diluted 1:3 with room temperature PBS) with Thermo combi or multichannel and incubate for 10 min. Read on Perkin-Elmer EnVision with US LUM settings for 0.1 second per well.
A549 Assay Protocol. Day 0: A549 cells (ATCC) are grown in a Triple flask (NUNC) to ˜95% confluence (TrypLE Phenol Red free) and resuspended for dispensing at 25,000 cells/mL of DMEM, 10% FBS/Pen/Strep/L-Glutamine (using the TAP Compact SelecT automated cell culture system). Day 1: Plate cells at 1000 per well in 40 uL media (DMEM/10% FBS/Pen/Strep/L-Glutamine) using Corning 8867BC 384 well plates; incubate in standard TC conditions (5% CO2; 95% humidity, 37° C.) for 24 hours (Compact SelecT). Day 2: Add 100 nL compound per well at dose into 40 uL assay volume using a pin tool (CyBi Well). Pin 100 nL cytotoxic compounds, mitoxantrone (CID 4212) to positive control wells to a final concentration of 10 μM (100 nL 4 mM DMSO stock). Incubate for […] at 37° C. in Liconic incubator, 95% humidity 5% CO2. Day 4: Remove plate from incubator, cool for 15 minutes to room temperature; add 20 μL 50% Promega CellTiterGlo (diluted 1:1 with PBS, pH 7.4) with Thermo Combi. Incubate at room temperature for 5 minutes. Read plates on Perkin-Elmer EnVision with standard luminescence settings for 0.1 sec per well.
(§2) Compounds as shown were tested against various cells lines in vitro according to the methods described herein. Cells are plated in 384-well format in a total volume of 40 μl. Indicated compound concentrations were added 24 hrs after plating the cells. After 48 hrs cell viability was determined using Cell Titer Glo® Luminescent Cell Viability Assay.
(§3) Known PDE3 inhibitors as shown below were tested against various cells lines in vitro according to the methods described herein. Cells are plated in 384-well format in a total volume of 40 μl. Indicated compound concentrations were added 24 hrs after plating the cells. After 48 hrs cell viability was determined using Cell Titer Glo® Luminescent Cell Viability Assay.

H1563 = H1563 cell line viability (Cell Titer Glo); conditions: Homo sapiens, NCI-H1563; n = 2; read-out: Potency (EC50) H1563
Protocol: as §2

HeLa cells = assay: HeLa Cytotoxicity Assay (Cell Titer Glo viability); conditions: Homo sapiens, HeLa
Protocol: HeLa Cytotoxicity Assay Protocol: Day 0: HeLa cells (ATCC, HeLa CCL-2) are grown to 95% confluence in DMEM, 10% FBS/Pen/Strep/L-Glutamine. Day 1: Plate cells (1000 per well) in 40 μl culturing media using Corning 384-well plates (3570), incubate in standard TC conditions (5% CO2, 95% humidity, 37 degrees C.) for 24 hours. Day 2: Dilute each concentration of a half-log serial dilution of compound (1 mM-100 nM) 1:200 in culturing media and add 10 μl (50 μl total volume) of that dilution to designated wells (8 replicates per concentration). The final dilution will be 1000×(1 μM-100 pM). Day 4: Remove plate from incubator to cool for 20 minutes to room temperature. Add 40 μl of a 25% Promega Cell Titer Glo solution (diluted 1:3 with room temperature PBS) with Thermo combi or multichannel and incubate for 10 minutes. Read on Perkin-Elmer EnVision with US LUM settings for 0.1 second per well.
as §2, §3

H2122 cells = assay: H2122 Assay (Cell Titer Glo viability); conditions: Homo sapiens
Protocol: Selective toxicity in cell line panel. H2122 Assay Protocol Day 0: H2122 cells (ATCC, H2122 CCL-5985) are grown to 95% confluence in RPMI, 10% FBS/Pen/Strep/L-Glutamine. Day 1: Plate cells (750 per well) in 40 μl culturing media using Corning 384-well plates (3570), incubate in standard TC conditions (5% CO2, 95% humidity, 37 degrees C.) for 24 h. Day 2: Dilute each concentration of a half-log serial dilution of compound (1 mM-100 nM) 1:200 in culturing media and add 10 μl (50 μl total volume) of that dilution to designated wells (8 replicates per concentration). The final dilution will be 1000×([…]). Day 4: Remove plate from incubator to cool for 20 minutes to room temperature. Add 40 μl of a 25% Promega Cell Titer Glo solution (diluted 1:3 with room temperature PBS) with Thermo combi or multichannel and incubate for 10 minutes. Read on Perkin-Elmer EnVision with US LUM settings for 0.1 second per well.
as §2

COLO741 cells = assay: COLO741 Assay (Cell Titer Glo viability); conditions: Homo sapiens, COLO-741, Example 18; Mean ± SD (n = 3); read-out: Potency (EC50 nM) COLO741
Protocol: as §1, with “C0L0741” for “A549 Cytotoxicity”, “C0L0741” for “A549”, “(ECACC, C0L0741 93052621)” for “(ATCC, A549 CCL-185)”, “(1500” for “(1000”, “minutes.” for “min.”
as §2

[1] = n = 2, read-out: Potency (EC50) A549
[2] = n = 2, read-out: Potency (EC50) HeLa
[3] = NCI-H2122, n = 2, read-out: Potency (EC50) H2122
[4] = 48 h, Cell Titer Glo, read-out: EC50 HeLa
[5] = 48 hrs, Cell Titer Glo, read-out: EC50 A549
[6] = Mean ± SD (n = 3), read-out: Potency (EC50 nM) HeLa
[7] = Mean ± SD (n = 3), read-out: Potency (EC50 nM) A549

Row | SMILES | EC50 (A549 cells; [1]) [nM] | EC50 (H1563) [nM] | EC50 (HeLa cells; [6]) [nM] | EC50 (A549 cells; [7]) [nM] | other results
1 | O=C(O)Cc1n[nH]c(=O)c2ccccc12 | > 10000 | > 10000 | – | – | –
2 | CC1CC(=O)NN=C1c1ccc(N)cc1 (centres unmarked) | > 10000 | > 10000 | – | – | –
3 | CC1CC(=O)NN=C1c1ccc(N(C)C)c([N+](=O)[O-])c1 (centres unmarked) | > 10000 | 40 | – | – | –
4 | CCN(CC)c1ccc(C(=O)Nc2cccc(OC)c2)cc1[N+](=O)[O-] | > 10000 | > 10000 | – | – | –
5 | CC1CC(=O)NN=C1c1ccc(N2CCCCC2)c([N+](=O)[O-])c1 (centres unmarked) | > 10000 | 3 | – | – | EC50 (HeLa cells; [2]): 1 nM; EC50 (H2122 cells; [3]): 1 nM
6 | CCN(CC)c1ccc(C2=NNC(=O)CC2C)cc1[N+](=O)[O-] (centres unmarked) [drawing 215] | – | – | – | – | EC50 (COLO741 cells): 12 ± 1.3 nM; EC50 (H2122 cells; NCI-H2122, Example 18, Mean ± SD (n = 3), read-out: Potency (EC50 nM) H2122): 13.7 ± 2.8 nM
7 | C[C@@H]1CC(=O)NN=C1c1ccc(N)cc1 | > 10000 | > 10000 | – | – | –
8 | CCN(CC)c1ccc(C2=NNC(=O)CC2C)cc1[N+](=O)[O-] (centres unmarked) [drawing 226] | > 10000 | 12 | – | – | EC50 (HeLa cells; [2]): 4 nM; EC50 (H2122 cells; [3]): 12 nM
9 | COc1ccc(CC(=O)N2CCN(c3ccc(C4=NNC(=O)CC4C)cc3[N+](=O)[O-])CC2)cc1 (centres unmarked) | > 10000 | > 10000 | – | – | –
10 | CCN(CC)c1ccc(C#N)cc1[N+](=O)[O-] | > 10000 | > 10000 | – | – | –
11 | CCN(CC)c1ccc(C(=O)O)cc1[N+](=O)[O-] | > 10000 | > 10000 | – | – | –
12 | O=C1CCC(c2ccccc2)=NN1 | > 10000 | > 10000 | – | – | –
13 | CCN(CC)c1ccc(C2=NNC(=O)CC2C)cc1[N+](=O)[O-] (centres unmarked) [drawing 137] | – | – | – | – | EC50 (HeLa cells; [4]): 5.5 to 8.7 nM; EC50 (H2122 cells; NCI-H2122, 48 h, 48 hrs, Cell Titer Glo, read-out: EC50 H2122): 10.3 to 15.6 nM; EC50 (A549 cells; [5]): > 10000 nM
14 | C[C@@H]1CC(=O)NN=C1c1ccc(-c2cncnc2)cc1 [drawing 197] | – | – | 13 ± 2 | > 10000 | –
15 | CC1CC(=O)NN=C1c1ccc(N)c([N+](=O)[O-])c1 (centres unmarked) | > 10000 | > 10000 | – | – | –
16 | CCN(CC)c1ccc(C(=O)Nc2ccccc2)cc1[N+](=O)[O-] | > 10000 | – | – | – | EC50 (HeLa cells; [2]): > 10000 nM
17 | C[C@@H]1CC(=O)NN=C1c1ccc(N2CCOCC2)c(F)c1 [drawing 166] | – | – | 1.6 ± 0.2 | > 10000 | –
18 | CC(=O)Nc1ccc(C2=NNC(=O)CC2C)cc1 (centres unmarked) [drawing 173] | – | – | > 1000 | > 10000 | –

Row | SMILES | EC50 (A549 cells; [1]) [nM] | EC50 (H1563) [nM] | EC50 (HeLa cells; [6]) [nM] | EC50 (A549 cells; [7]) [nM] | other results
19 | CC(=O)N1CCN(c2ccc(C3=NNC(=O)C[C@H]3C)cc2F)CC1 | – | – | > 1000 | > 10000 | –
20 | C[C@@H]1CC(=O)NN=C1c1ccc(Cl)cc1 | – | – | 33 ± 5 | > 10000 | –
21 | CCN(CC)c1ccc(-c2n[nH]c(=O)cc2C)cc1 [drawing 200] | – | – | > 1000 | > 10000 | –
22 | CC(=O)Nc1ccc(C2=NNC(=O)C[C@H]2C)cc1Br [drawing 146] | – | – | – | – | EC50 (HeLa cells; [4]): 42.1 nM; EC50 (A549 cells; [5]): > 10000 nM
23 | CC1CC(=O)NN=C1c1ccc(N2CCOCC2)c([N+](=O)[O-])c1 (centres unmarked) | > 10000 | 3 | – | – | –
24 | O=C1CC(c2ccccc2)=NN1 | > 10000 | – | – | – | EC50 (HeLa cells; [2]): > 10000 nM
25 | CCN(CC)c1ccc(C2=NNC(=O)CC2C)cc1N (centres unmarked) | – | – | 240 ± 60 | > 10000 | –
26 | Cc1cc(=O)[nH]nc1-c1ccc(N)cc1 [drawing 199] | – | – | > 1000 | > 10000 | –
27 | CC1CC(=O)NN=C1c1ccc(NCCO)c([N+](=O)[O-])c1 (centres unmarked) | > 10000 | 40 | – | – | EC50 (HeLa cells; [2]): 4 nM; EC50 (H2122 cells; [3]): 11 nM
28 | CCN(CC)c1ccc(C2=NNC(=O)CC2C)cc1 (centres unmarked) | – | – | 8.8 ± 2.3 | > 10000 | –
29 | CC1(C)C(=O)NN=C1c1ccc(Cl)cc1 | – | – | > 1000 | > 10000 | –
30 | Cc1ccc(CCC(=O)N2CCN(c3ccc(C4=NNC(=O)CC4C)cc3)CC2)cc1 (centres unmarked) | > 10000 | – | – | – | EC50 (HeLa cells; [2]): > 10000 nM
31 | CC(=O)Nc1ccc(C2=NNC(=O)C[C@H]2C)cc1 [drawing 174] | – | – | > 1000 | > 10000 | –
32 | CC1CC(=O)NN=C1c1ccc(N)c(N)c1 (centres unmarked) | > 10000 | > 10000 | – | – | –
33 | CC1CC(=O)NN=C1c1ccc(/N=C\c2ccccc2[N+](=O)[O-])cc1 (centres unmarked) | > 10000 | > 10000 | – | – | –
34 | C#Cc1cc(C2=NNC(=O)C[C@H]2C)ccc1NC(C)=O | – | – | 65 ± 10 | > 10000 | –
35 | CN/C(=N\c1ccc(C2=NNC(=O)CC2C)cc1)NC#N (centres unmarked) [drawing 237] | > 10000 | > 10000 | – | – | –
